Measured values from article PMC3898741, “Substituted imidazopyridazines are potent and selective inhibitors of Plasmodium falciparum calcium-dependent protein kinase 1 (PfCDPK1)” (Bioorganic & Medicinal Chemistry Letters, 2013).
Like-named read-outs stand apart in the source and are kept apart here.

Key:
P. falciparum parasite = assay: In vitro P. falciparum parasite growth (FACS, hydroethidine); format: cell-based, Plasmodium falciparum; details: for inhibition at 1 µM / EC50: Plasmodium falciparum; for inhibition at 1 µM: at 1 μM inhibitor concentration
Procedure: [15] P. falciparum EC50 values were measured using an in vitro model of malaria parasite growth. Compounds were diluted into 2% DMSO and added to parasites 24 h post-invasion in a 96-well plate and incubated under static conditions. Cells were recovered 48 h later and processed for FACS analysis using hydroethidine to stain parasite DNA. Data was acquired using CellQuest Pro software on a FACSCalibur (Becton Dickinson). Growth inhibition was calculated using the following formula: % growth inhibition = (1 − [parasitaemia of culture/parasitaemia of control culture]) ×100.

PfCDPK1 = PfCDPK1 (Plasmodium falciparum, UniProt P62344); assay: PfCDPK1 enzyme inhibition (Kinase-Glo ATP depletion); format: biochemical; details: for IC50: isolated recombinant enzyme
Procedure: [10] A high throughput screen of 35,422 compounds comprising a diverse set of small molecules from a variety of commercial suppliers and 8100 kinase-focused compounds (BioFocus) was performed using Kinase-Glo® (Promega) to measure ATP depletion resulting from the kinase reaction. Full length recombinant PfCDPK1 was incubated with MyoA-Tail domain Interacting Protein (MTIP) substrate and the amount of ATP remaining after 1 h was measured by luminescence using a Pherastar plate reader (BMG Labtech).

Measured log D = format: physicochemical
Source text: Table 6 In vitro ADME and in vivo efficacy data for selected compounds | column: 17; 24; 27; 28

[1] = Human liver microsome stability (HLM); format: in vitro ADME; details: % remaining at 30 min, human microsomes
PAMPA permeability = format: in vitro ADME
P. berghei = assay: 4-Day Peters test in P. berghei mouse model; format: in vivo; details: oral once daily 50 mg/kg, 4 days, relative to vehicle
Procedure: In advance of in vivo testing, it was shown that the inhibitors retained potency against the isolated P. berghei CDPK1 enzyme.[16] Compounds were dosed with an oral, once daily 50 mg/kg regime over 4 days in the standard Peters test, and their in vitro ADME and in vivo efficacy data is shown in Table 6.

[2] = tested on: 73-member human kinase panel; assay: Kinase selectivity against 73-member human kinase panel; format: biochemical; details: 1 μM inhibitor concentration; for Kinases hit in human kinase panel: 73-member panel
Procedure: [17] Kinase selectivity profiling was carried out at the National Centre for Protein Kinase Profiling in the MRC Protein Phosphorylation Unit at the University of Dundee.

[3] = Mouse liver microsome stability (MLM); format: in vitro ADME; details: % remaining at 30 min, mouse microsomes
Mouse pharmacokinetics = format: in vivo
[4] = in vitro parasite growth, 48 h, read-out: P. falciparum EC50

Chain of PfCDPK1 (P62344 whole entry, the tested form may be a part): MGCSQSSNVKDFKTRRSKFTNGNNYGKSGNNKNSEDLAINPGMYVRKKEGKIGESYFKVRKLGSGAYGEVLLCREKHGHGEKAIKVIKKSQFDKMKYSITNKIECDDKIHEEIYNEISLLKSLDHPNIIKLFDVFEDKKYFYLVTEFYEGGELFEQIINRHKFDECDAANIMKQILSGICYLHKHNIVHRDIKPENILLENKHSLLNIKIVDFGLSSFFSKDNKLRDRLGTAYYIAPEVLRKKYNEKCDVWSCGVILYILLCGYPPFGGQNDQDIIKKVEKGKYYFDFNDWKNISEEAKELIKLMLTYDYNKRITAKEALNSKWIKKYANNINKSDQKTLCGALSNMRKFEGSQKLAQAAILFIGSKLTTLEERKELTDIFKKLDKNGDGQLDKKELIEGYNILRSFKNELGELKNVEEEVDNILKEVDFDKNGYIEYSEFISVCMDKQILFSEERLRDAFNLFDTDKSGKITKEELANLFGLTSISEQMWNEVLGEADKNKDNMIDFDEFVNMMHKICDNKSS

SMILES | IC50 (PfCDPK1) [nM] | EC50 (P. falciparum parasite; [4]) [nM] | further results
NC(=O)c1ccc(-c2cnc3ccc(NCCc4cccnc4)nn23)cc1 [Compound 1] | 59 | – | inhibition at 1 µM (P. falciparum parasite): 99%
CC(=O)Nc1cccc(-c2cnc3ccc(N[C@H]4CC[C@H](N)CC4)nn23)c1 [Compound 6] | 11 | 320 | –
NC(=O)c1ccc(-c2cnc3ccc(NCCc4ccccn4)nn23)cc1 [Compound 2] | 61 | – | inhibition at 1 µM (P. falciparum parasite): 99%
CC(C)CCNc1ccc(-c2cnc3ccc(NC4CN(C)C4)nn23)cn1 [Compound 25] | 89 | 930 | –
CC(C)CCNC(=O)c1ccc(-c2cnc3ccc(N[C@H]4CC[C@H](N)CC4)nn23)cc1 [Compound 9] | 16 | 460 | EC50 against the P. falciparum parasite (P. falciparum parasite): sub-micromolar
COC(=O)Nc1cccc(-c2cnc3ccc(NC4CCN(C)CC4)nn23)c1 [Compound 8] | 18 | 750 | –
CC(C)CCNc1nccc(-c2cnc3ccc(NC4CCN(C)CC4)nn23)n1 [Compound 33] | 424 | – | –
CC(C)CCNc1ccc(-c2cnc3ccc(N4CCC(N)CC4)nn23)cn1 [Compound 28] | 13 | 140 | logD (Measured log D): 2.5; HLM (% rem) [1]: 90 % rem; Papp (PAMPA permeability): 5.5 ×10⁻⁶ cm/s; Reduction in parasitaemia in vivo (P. berghei): 11%; Selectivity profile against panel of human kinases [2]: good selectivity profiles; Kinases hit in human kinase panel [2]: RSK1, CAMK1, PHK, NUAK1, and HER4; MLM (% rem) [3]: 90 % rem
CC(=O)Nc1cccc(-c2cnc3ccc(NCCc4ccccn4)nn23)c1 [Compound 3] | 66 | – | inhibition at 1 µM (P. falciparum parasite): 35%
CCCCNc1ccc(-c2cnc3ccc(NC4CCN(C)CC4)nn23)cn1 [Compound 18] | 14 | 430 | –
CN1CCC(Nc2ccc3ncc(-c4ccc(NCC5CC5)nc4)n3n2)CC1 [Compound 19] | 36 | 450 | –
CC(C)CCNc1ccc(-c2cnc3ccc(NC4CCNCC4)nn23)cn1 [Compound 29] | 15 | 240 | –
N#Cc1ccc(-c2cnc3ccc(NCCc4cccnc4)nn23)cc1 [Compound 4] | 71 | – | inhibition at 1 µM (P. falciparum parasite): 98%
CC(C)CCNc1ncc(-c2cnc3ccc(N[C@H]4CC[C@H](N)CC4)nn23)cn1 [Compound 32] | 16 | 170 | –
CC(C)CCNc1ccc(-c2cnc3ccc(N4CCC(N(C)C)CC4)nn23)cn1 [Compound 27] | 44 | 570 | logD (Measured log D): 3.2; HLM (% rem) [1]: 80 % rem; Papp (PAMPA permeability): 13.7 ×10⁻⁶ cm/s; Reduction in parasitaemia in vivo (P. berghei): 7%; MLM (% rem) [3]: 84 % rem
CC(C)CCOc1ccc(-c2cnc3ccc(N[C@H]4CC[C@H](N)CC4)nn23)cn1 [Compound 30] | 170 | 540 | –
CC(C)CCNc1ncc(-c2cnc3ccc(NC4CCN(C)CC4)nn23)cn1 [Compound 31] | 14 | 470 | –
CC(C)CCNc1cc(-c2cnc3ccc(NC4CCN(C)CC4)nn23)ccn1 [Compound 21] | 88 | – | Loss in potency against the enzyme in comparison to 17 (PfCDPK1; PfCDPK1): sevenfold loss in potency
CC(C)CCNc1ccc(-c2cnc3ccc(NC4CCN(C)CC4)nn23)cn1 [Compound 17] | – | 400 | logD (Measured log D): 3.4; HLM (% rem) [1]: 85 % rem; Clearance (in words) (Mouse pharmacokinetics): moderate to high clearance; Oral bioavailability in mouse (in words) (Mouse pharmacokinetics): good oral bioavailability; i.v. t1/2 (Mouse pharmacokinetics): 2 h; Oral %F (Mouse pharmacokinetics; oral): 84%; EC50 (P. falciparum parasite; P. falciparum, read-out: Cell potency): < 500 nM; Reduction in parasitaemia in vivo (P. berghei): 46%; Kinases hit in human kinase panel [2]: MKK1, RSK1, PKD1, CHK2, Aurora B, NUAK1, GCK, MLK1, Src, Lck, YES1, and VEGFR; MLM (% rem) [3]: 63 % rem
Fc1cccc(-c2cnc3ccc(NCCc4cccnc4)nn23)c1 [Compound 5] | 80 | – | inhibition at 1 µM (P. falciparum parasite): 6%
COCCNc1ccc(-c2cnc3ccc(NC4CCN(C)CC4)nn23)cn1 [Compound 20] | 25 | 670 | –
CC(C)CCNc1ccc(-c2cnc3ccc(NC4CCN(C)C4)nn23)cn1 (stereo not shown) [Compound 24] | 23 | 170 | logD (Measured log D): 3.5; HLM (% rem) [1]: 63 % rem; Papp (PAMPA permeability): 11.4 ×10⁻⁶ cm/s; Reduction in parasitaemia in vivo (P. berghei): 30%; Selectivity profile against panel of human kinases [2]: good selectivity profiles; Kinases hit in human kinase panel [2]: RSK1 and HER4; MLM (% rem) [3]: 74 % rem
CC(C)CCNC(=O)c1ccc(-c2cnc3ccc(NC4CCN(C)CC4)nn23)cc1 [Compound 10] | 23 | 780 | EC50 against the P. falciparum parasite (P. falciparum parasite): sub-micromolar
CN1CCC(Nc2ccc3ncc(-c4cccc(NC(=O)C5CC5)c4)n3n2)CC1 [Compound 7] | 22 | 560 | –
CC(C)CCNc1ccc(-c2cnc3ccc(N4CCN(C)CC4)nn23)cn1 [Compound 26] | 175 | 2400 | –
